Assays:
TNKS2 = target: T1, TNKS2 (Homo sapiens, UniProt Q9H2K2); experiment: Modified TNKS2 Assay 2 (auto-parsylation, [3H]-NAD+ SPA); assay type: biochemical; conditions: 6 nM TNKS2, 96 well
T1 sequence (Q9H2K2 1-1166): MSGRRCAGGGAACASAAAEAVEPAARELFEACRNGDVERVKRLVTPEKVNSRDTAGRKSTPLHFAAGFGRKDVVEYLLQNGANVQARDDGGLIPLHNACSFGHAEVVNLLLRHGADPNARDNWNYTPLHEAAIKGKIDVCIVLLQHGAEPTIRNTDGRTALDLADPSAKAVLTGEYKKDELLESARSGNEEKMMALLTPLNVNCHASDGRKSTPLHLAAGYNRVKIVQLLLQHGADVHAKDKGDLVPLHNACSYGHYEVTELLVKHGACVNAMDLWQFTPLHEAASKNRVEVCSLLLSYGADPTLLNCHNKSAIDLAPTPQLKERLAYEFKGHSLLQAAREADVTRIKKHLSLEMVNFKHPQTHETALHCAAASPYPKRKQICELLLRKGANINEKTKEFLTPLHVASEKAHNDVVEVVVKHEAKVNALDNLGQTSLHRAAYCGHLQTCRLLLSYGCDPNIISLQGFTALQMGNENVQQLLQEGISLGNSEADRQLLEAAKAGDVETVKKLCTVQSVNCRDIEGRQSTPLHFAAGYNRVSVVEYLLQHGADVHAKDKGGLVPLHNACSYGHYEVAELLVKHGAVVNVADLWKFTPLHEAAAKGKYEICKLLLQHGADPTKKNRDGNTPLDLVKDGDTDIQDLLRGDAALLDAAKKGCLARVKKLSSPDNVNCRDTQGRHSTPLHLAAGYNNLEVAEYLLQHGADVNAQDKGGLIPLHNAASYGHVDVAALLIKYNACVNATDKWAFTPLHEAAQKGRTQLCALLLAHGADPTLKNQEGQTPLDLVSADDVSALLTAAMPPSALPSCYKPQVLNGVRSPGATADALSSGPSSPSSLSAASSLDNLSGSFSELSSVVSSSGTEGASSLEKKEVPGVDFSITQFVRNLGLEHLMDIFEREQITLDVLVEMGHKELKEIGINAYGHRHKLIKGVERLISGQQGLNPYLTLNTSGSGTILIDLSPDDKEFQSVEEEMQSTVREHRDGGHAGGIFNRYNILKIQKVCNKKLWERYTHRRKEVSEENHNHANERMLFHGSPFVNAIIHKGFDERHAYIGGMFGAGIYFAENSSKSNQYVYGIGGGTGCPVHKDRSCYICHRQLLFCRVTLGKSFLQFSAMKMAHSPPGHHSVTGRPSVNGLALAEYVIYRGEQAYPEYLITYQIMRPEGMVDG
Protocol: The potency of selected compounds according to the invention was assessed applying an modified in vitro inhibition assay. Here, the TNKS2 catalyzed NAD^+-dependent ribosylation of the enzyme itself (auto-parsylation) was detected using [^3H]-NAD^+ as substrate and applying the scintillation proximity assay (SPA) method to detect tritium-labeled, parsylated TNKS2. The intensity of the readout signal is proportional to the incorporated [^3H]-NAD^+. Inhibition of TNKS2 leads to a decreased incorporation of [^3H]-NAD^+ and consequently to a lower readout signal intensity. The concentration of a test compound which inhibits the enzyme activity by 50% (corresponds to half of the normed readout signal intensity) is reported as IC50.
The assay was conducted in a 96 well MTP format with the identical TNKS2 enzyme sample and NAD^+ sample as in the histone ribosylation assay with the following modifications: TNKS2 enzyme sample was diluted with a modified assay buffer (50 mM MES pH 7.0, 1 mM DTT, 0.01% Triton X-100) to a final concentration of 6 nM TNKS2 and 10×NAD^+ solution was diluted with the modified assay buffer (s. above) to a final 0.445×NAD^+ solution doped with 100 Bq/ul [^3H]-NAD^+ [Catalog #NET443H050UC, Perkin Elmer, Waltham, Mass., USA]. Substrate solution (10 ul) was incubated with different test compound concentrations (2.5 ul in 10% DMSO in modified assay buffer) or control (2.5 ul 10% DMSO in modified assay buffer only) and enzyme (10 ul) over night at room temperature. Incorporated tritium was measured after addition of 50 ul SPA beads (1 mg/ml) [Catalog #RPNQ0095 20 mg/ml, Perkin Elmer, Waltham, Mass., USA; diluted 1:10 with Dulbecco's phosphate buffered saline, PBS Catalog #D8537, Sigma-Aldrich, Steinheim, Germany] and detection of the photon emission with a beta count plate reader [Wallac MicroBeta®, Perkin Elmer, Waltham, Mass., USA].

[1] = tested on: wildtype Wnt signaling cascade; experiment: HEK293 TOP Assay (Super TopFlash luciferase reporter, Wnt-3a stimulated); assay type: cell-based; conditions: Homo sapiens, HEK293, 16 h
Procedure, shortened: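 HEK293 cells stably carrying Super TopFlash (TOP) or FOP reporter, stimulated with recombinant human Wnt-3a (2500–5 ng/ml, two-fold steps). Both lines incubated in parallel with compound from 50 μM to 15 nM (3.16-fold) in CAFTY buffer pH 7.4 with 2 mM Ca2+ and 0.01% BSA; selectivity judged TOP vs FOP.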

[2] = HEK293 TOP reporter cell line, Wnt-3a at EC50, 16 hours incubation, compound dilution series 50 μM to 15 nM
[3] = HEK293 TOP reporter cells, Wnt3a at EC50, 16 hours, luciferase

SMILES	IC50 (TNKS2) [nM]	IC50 [1, 2] [nM]	IC50 [1, 3] [nM]
CNC(=O)c1nc[nH]c1C(=O)Nc1ccc(NC(=O)c2cccc(Cl)c2Cl)cc1 [Example 1, N^5-{4-[(2,3-dichlorobenzoyl)amino]phenyl}-N^4-methyl-1H-imidazole-4,5-dicarboxamide]	3300	1200	1100
CNC(=O)c1nc[nH]c1C(=O)Nc1ccc(NC(=O)c2ccc(N3CCCC3)cc2F)cc1 [Example 3, N^5-(4-{[2-fluoro-4-(pyrrolidin-1-yl)benzoyl]amino}phenyl)-N^4-methyl-1H-imidazole-4,5-dicarboxamide]	–	9700	9700
CNC(=O)c1nc[nH]c1C(=O)Nc1ccc(NC(=O)c2ccc(N(C)C)cc2Cl)cc1 [Example 4, N^5-(4-{[2-chloro-4-(dimethylamino)benzoyl]amino}phenyl)-N^4-methyl-1H-imidazole-4,5-dicarboxamide]	> 10000	910	910
CNC(=O)c1nc[nH]c1C(=O)Nc1ccc(NC(=O)c2ccc(F)cc2Cl)c(C)c1 [Example 5, N^5-{4-[(2-chloro-4-fluorobenzoyl)amino]-3-methylphenyl}-N^4-methyl-1H-imidazole-4,5-dicarboxamide]	770	240	240
CNC(=O)c1nc[nH]c1C(=O)Nc1ccc(NC(=O)c2ccncc2Cl)cc1 [Example 6, N^5-{4-[(3-chloroisonicotinoyl)amino]phenyl}-N^4-methyl-1H-imidazole-4,5-dicarboxamide]	180	230	230
CCC(C)NC(=O)c1ncoc1C(=O)Nc1ccc(NC(=O)c2ccc(F)cc2Cl)cc1 (centres unmarked) [Example 7, N^4-sec-butyl-N^5-{4-[(2-chloro-4-fluorobenzoyl)amino]phenyl}-1,3-oxazole-4,5-dicarboxamide]	–	5650	5650
CC(NC(=O)c1ncoc1C(=O)Nc1ccc(NC(=O)c2ccc(F)cc2Cl)cc1)c1ccccc1 (centres unmarked) [Example 8, N^5-{4-[(2-chloro-4-fluorobenzoyl)amino]phenyl}-N^4-(1-phenylethyl)-1,3-oxazole-4,5-dicarboxamide]	–	4600	4600
CNC(=O)c1nc[nH]c1C(=O)Nc1ccc(NC(=O)c2ccc(Cl)cc2Cl)cc1 [Example 9, N^5-{4-[(2,4-dichlorobenzoyl)amino]phenyl}-N^4-methyl-1H-imidazole-4,5-dicarboxamide]	80	140	150
CC(C)NC(=O)c1nc[nH]c1C(=O)Nc1ccc(NC(=O)c2ccc(F)cc2Cl)cc1 [Example 10, N^5-{4-[(2-chloro-4-fluorobenzoyl)amino]phenyl}-N^4-isopropyl-1H-imidazole-4,5-dicarboxamide]	350	170	180
CNC(=O)c1ncoc1C(=O)Nc1ccc(NC(=O)c2ccc(F)cc2Cl)cc1 [Example 11, N^5-{4-[(2-chloro-4-fluorobenzoyl)amino]phenyl}-N^4-methyl-1,3-oxazole-4,5-dicarboxamide]	910	730	730
CNC(=O)c1nc[nH]c1C(=O)Nc1ccc(NC(=O)c2ccc(F)cc2Cl)cc1 [Example 12, N^5-{4-[(2-chloro-4-fluorobenzoyl)amino]phenyl}-N^4-methyl-1H-imidazole-4,5-dicarboxamide]	60	140	150
COC(=O)c1ncoc1C(=O)Nc1ccc(NC(=O)c2ccc(F)cc2Cl)cc1 [Example 14, Methyl 5-({4-[(2-chloro-4-fluorobenzoyl)amino]phenyl}carbamoyl)-1,3-oxazole-4-carboxylate]	–	9350	11500
CC(C)NC(=O)c1ncoc1C(=O)Nc1ccc(NC(=O)c2ccc(F)cc2Cl)cc1 [Example 15, N^5-{4-[(2-chloro-4-fluorobenzoyl)amino]phenyl}-N^4-isopropyl-1,3-oxazole-4,5-dicarboxamide]	–	1250	1250
CNC(=O)c1nc[nH]c1C(=O)Nc1ccc(NC(=O)c2ccc(F)cc2Cl)nc1 [Example 16, N^5-{6-[(2-chloro-4-fluorobenzoyl)amino]pyridin-3-yl}-N^4-methyl-1H-imidazole-4,5-dicarboxamide]	100	180	180
CNC(=O)c1nc[nH]c1C(=O)Nc1ccc(NC(=O)c2c(-c3ccccc3)nn(C)c2Cl)cc1 [Example 17, N^5-(4-{[(5-chloro-1-methyl-3-phenyl-1H-pyrazol-4-yl)carbonyl]amino}phenyl)-N^4-methyl-1H-imidazole-4,5-dicarboxamide]	–	3550	3550
O=C(Nc1ccc(NC(=O)c2[nH]cnc2C(=O)NCc2ccccc2)cc1)c1ccc(F)cc1Cl [Example 18, N^4-benzyl-N^5-{4-[(2-chloro-4-fluorobenzoyl)amino]phenyl}-1H-imidazole-4,5-dicarboxamide]	–	410	340
CNC(=O)c1nc[nH]c1C(=O)Nc1ccc(NC(=O)c2ccccc2C)cc1 [Example 19, N^4-methyl-N^5-{4-[(2-methylbenzoyl)amino]phenyl}-1H-imidazole-4,5-dicarboxamide]	1800	1150	1250
CNC(=O)c1nc[nH]c1C(=O)Nc1ccc(NC(=O)c2ccc(F)cc2)cc1 [Example 20, N^5-{4-[(4-fluorobenzoyl)amino]phenyl}-N^4-methyl-1H-imidazole-4,5-dicarboxamide]	> 10000	11200	3350
CNC(=O)c1nc[nH]c1C(=O)Nc1ccc(NC(=O)c2c(C)cc(F)cc2C)cc1 [Example 23, N^5-{4-[(4-fluoro-2,6-dimethylbenzoyl)amino]phenyl}-N^4-methyl-1H-imidazole-4,5-dicarboxamide]	–	660	660
CN(C)C(=O)c1nc[nH]c1C(=O)Nc1ccc(NC(=O)c2ccc(F)cc2Cl)cc1 [Example 24, N^5-{4-[(2-chloro-4-fluorobenzoyl)amino]phenyl}-N^4,N^4-dimethyl-1H-imidazole-4,5-dicarboxamide]	3400	2130	2050
CNC(=O)c1[nH]cnc1C(=O)Nc1ccc(NC(=O)c2cc(Cl)sc2Cl)cc1 [Example 213, N^4-(4-{[(2,5-dichloro-3-thienyl)carbonyl]amino}phenyl)-N^5-methyl-1H-imidazole-4,5-dicarboxamide]	–	460	–

Reference: patent publication US9884063B2, “Amido-substituted azole compounds” (Bayer Pharma Aktiengesellschaft, priority 2014, dated 2018)
